Reference: patent publication US20100190856A1, “Novel Polyhydroxylated Compounds as Fatty Acid Synthase (FASN) Inhibitors” (UNIVERSIDAD COMPLUTENSE DE MADRID, priority 2007, published 2010)
Entries after “also recorded” stand apart in the source; their conditions may differ.

Tests used:
[1] = Weight loss in vivo (data not shown)
[2] = tested on: ERK1/2; test: Immunoblot analysis of ERK1/2 and phospho-ERK1/2 in SK-Br3 cells; format: cell-based, human; conditions: for activation of p-ERK1/2 proteins: SK-Br3, 30 μM, 6 h after treatment; for active form of ERK1/2: within 2 h after treatment
Protocol: Following the treatment of SK-Br3 cells with the studied compound at the desired concentrations and time intervals, cells were harvested by treatment with trypsin-EDTA solution, washed twice with PBS and stored at −80° C. The cells were lysed in lysis buffer (1 mM EDTA, 150 mM NaCl, 100 μg/mL PMSF and 50 mM Tris-HCl, pH 7.5) and kept at 4° C. while they were routinely mixed every 2 min on the vortex during 30 min. A sample was taken for measurement of protein content by a BioRad assay (Bio-Rad Laboratories). Equal amounts of protein were heated in sodium dodecyl sulphate (SDS) sample buffer (Laemmli) for 5 min at 95° C., separated on a 3-8% SDS-polyacrylamide gel (FASN, p185^HER2/neu, phospho-p185^HER2/neu) or 4-12% SDS-polyacrylamide gel (AKT, phospho-AKT, ERK1/2, phospho-ERK1/2 and PARP) and transferred onto nitrocellulose membranes. The membranes were incubated for 1 h at room temperature in blocking buffer (2.5% powdered-skim milk in TBS-T [10 mM Tris-HCl pH 8.0, 150 mM NaCl and 0.05% Tween-20]) to prevent non-specific antibody binding. The primary antibody used was a monoclonal antibody. Antibody dilution was prepared in blocking solution and blots were incubated with monoclonal antibody overnight at 4° C. […] Blots were re-probed with an antibody for β-actin to control for protein loading and transfer.

[3] = target: T1, rat CPT-1 (Rattus norvegicus, UniProt Q63704); test: Carnitine palmitoyltransferase 1 (CPT-1) assay, yeast mitochondria; format: biochemical; set-up: % CPT-1 activity: concentration or dose not given beside the values; conditions: for % CPT-1 activity: % of DMSO control, mitochondria of P. pastoris expressing rat CPT-1
T1 construct: made in house; host or cells: Pichia pastoris GS115 (isolated intact mitochondria)
T1 sequence (Q63704 1-772): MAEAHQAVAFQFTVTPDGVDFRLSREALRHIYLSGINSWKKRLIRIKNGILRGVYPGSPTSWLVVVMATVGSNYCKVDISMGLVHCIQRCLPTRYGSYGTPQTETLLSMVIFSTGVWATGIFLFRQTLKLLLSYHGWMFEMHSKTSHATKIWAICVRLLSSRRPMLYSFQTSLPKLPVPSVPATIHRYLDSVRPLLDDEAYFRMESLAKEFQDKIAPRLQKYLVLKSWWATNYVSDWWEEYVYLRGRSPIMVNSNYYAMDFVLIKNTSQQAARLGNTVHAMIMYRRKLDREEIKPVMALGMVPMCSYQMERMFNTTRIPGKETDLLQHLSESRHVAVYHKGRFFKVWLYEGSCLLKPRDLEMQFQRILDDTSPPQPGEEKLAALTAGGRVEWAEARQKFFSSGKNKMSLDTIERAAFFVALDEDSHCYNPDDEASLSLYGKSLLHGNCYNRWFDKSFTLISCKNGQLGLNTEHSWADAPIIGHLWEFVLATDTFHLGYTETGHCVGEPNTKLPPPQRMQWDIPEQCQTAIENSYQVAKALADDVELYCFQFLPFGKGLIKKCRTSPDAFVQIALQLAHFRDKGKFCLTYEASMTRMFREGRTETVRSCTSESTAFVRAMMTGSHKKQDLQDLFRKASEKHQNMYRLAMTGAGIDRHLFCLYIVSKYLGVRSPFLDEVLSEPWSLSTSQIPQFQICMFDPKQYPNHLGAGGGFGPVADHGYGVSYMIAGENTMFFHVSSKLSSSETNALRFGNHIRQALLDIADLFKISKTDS
Source text: The expression plasmid pRCPT-Iβ/pHW010 (provided by Gebre Woldegiorgis, Beaverton, Oreg. Published in Woldegiorgis G. et al. Biochem. Biophys. Res. Commun. 2004, 325, 660-4.) was linearized in the GAP gene promoter by digestion with AvrII and integrated into the GAPp locus of P. pastoris GS115 by electroporation. Histidine prototrophic transformants were selected on YND plates and grown on YND medium. Mitochondria were isolated by disrupting the yeast cells with glass beads as previously described.
CPT activity was assayed by the forward exchange method using L-[^3H] carnitine as previously described (Nicot, C. et al., Biochem. Biophys. Res. Comm. 2004, 325, 2745-7). In a total volume of 0.5 mL, the standard enzyme assay mixture contained 0.2 mM L-[^3H]carnitine (˜5000 dpm/nmol), 80 μM palmitoyl-CoA, 20 mM HEPES (pH 7.0), 1% fatty acid-free albumin, and 40-75 mM KCl, with or without malonyl-CoA as indicated. Reactions were initiated by addition of isolated intact yeast mitochondria. The reaction was linear up to 4 min, and all incubations were done at 30° C. for 3 min. Reactions were stopped by addition of 6% perchloric acid and were then centrifuged at 2000 rpm for 7 min. The resulting pellet was suspended in water, and the product [^3H]palmitoylcarnitine was extracted with butanol at low pH. After centrifugation at 2000 rpm for 2 min, an aliquot of the butanol phase was transferred to a vial for radioactive counting.

[4] = tested on: MCF-7 breast cancer cells; test: MTT cytotoxicity assay, MCF-7 breast cancer cells; format: cell-based, human; conditions: Homo sapiens, MCF7, MCF-7 cells, 48 h, read-out: IC50, growth inhibition, MCF-7
Protocol: MCF-7 and MDA-MB-231 breast cancer cells were obtained from the American Type Culture Collection (ATCC) and were routinely grown in Dulbecco's modified Eagle's medium (DMEM, Gibco) containing 10% fetal bovine serum (FBS, Bio-Whittaker), 1% L-glutamine, 1% sodium pyruvate, 50 U/mL penicillin and 50 μg/mL streptomycin. SK-Br3 breast cancer cells were obtained from Eucellbank (Universidad de Barcelona, Spain) and were passaged in McCoy's 5 A medium containing 10% FBS, 1% L-glutamine, 1% sodium pyruvate, 50 U/mL penicillin and 50 μg/mL streptomycin. Non-malignant fibroblasts N-1 were obtained from Eucellbank (Universidad de Barcelona, Spain) and were passaged in DMEM medium containing 10% FBS, 1% L-glutamine, 1% sodium pyruvate, 50 U/mL penicillin and 50 μg/mL streptomycin. The cells remained free of Mycoplasma and were propagated in adherent culture according to established protocols. Cells were maintained at 37° C. in a humidified atmosphere of 95% air and 5% CO2.
Drug sensitivity was determined using a standard colorimetric MTT (3-4,5-dimethylthiazol-2-yl-2,5-diphenyltetrazolium bromide) assay. Briefly, cells were plated out at a density of 7×10^3 cells/100 μL/well in 96-well microtitre plates and allowed an overnight period for attachment. Then the medium was removed and fresh medium along with various concentrations of the tested compound were added to the cultures for a period of 48 h. Following the treatment, the cells were fed with drug-free medium (100 μL/well) and 10 μL of MTT solution (5 mg/mL; Sigma, St. Louis, Mo.), and the incubation was prolonged for 3 h at 37° C. After carefully removing the supernatants, the MTT-formazan crystals formed by metabolically viable cells were dissolved in dimethyl sulphoxide (100 μL/well) and the absorbance was measured at 570 nm in a multi-well plate reader (Model Anthos Labtec 2010 1.7 reader).

SMILES	weight loss in vivo [1]	activation of p-ERK1/2 proteins [2]	active form of ERK1/2 [2]	stimulation of CPT-1 activity (in words) [3]	% CPT-1 activity [3] [%]	IC50 [4] [µM]
O=C(Oc1cc(OC(=O)c2cc(O)c(O)c(O)c2)c2ccccc2c1)c1cc(O)c(O)c(O)c1 [f, 1,3-bis[(3,4,5-trihydroxybenzoyl)oxy]naphthalene]	without inducing weight loss in vivo	marked decrease	marked decrease	did not stimulate CPT-1 activity; also recorded: without parallel stimulation of CPT-1 activity	89 ± 4	46.3 ± 18
O=C(Oc1ccc(OC(=O)c2cc(O)c(O)c(O)c2)c2ccccc12)c1cc(O)c(O)c(O)c1 [i, 1,4-bis[(3,4,5-trihydroxybenzoyl)oxy]naphthalene]	without inducing weight loss in vivo	marked decrease	marked decrease	did not stimulate CPT-1 activity; also recorded: without parallel stimulation of CPT-1 activity	90 ± 5	44.4 ± 16.3
